Test results as given in patent publication US12492173B2, “Herbicidal substituted N-tetrazolyl aryl carboxamides” (Bayer Aktiengesellschaft, priority 2019, dated 2025).

Legend:
Format in all cases: in vivo
Lolium multiflorum = assay: Post-emergence herbicidal action, LOLMU; design: key: % herbicidal action: 100 = plants died, 0 = like control; conditions: for Herbicidal action against LOLMU: comparative experiment
Experimental: (§1) [table] 2. Post-Emergence Herbicidal Action Against Harmful Plants Seeds of monocotyledonous and dicotyledonous weed and crop plants are laid out in sandy loam soil in wood-fiber pots, covered with soil and cultivated in a greenhouse under good growth conditions. 2 to 3 weeks after sowing, the test plants are treated at the one-leaf stage. The compounds of the invention, formulated in the form of wettable powders (WP) or as emulsion concentrates (EC), are then sprayed onto the green parts of the plants in the form of an aqueous suspension or emulsion at a water application rate equating to 600 to 800 l/ha, with addition of 0.2% wetting agent. After the test plants have been left to stand in the greenhouse under optimal growth conditions for about 3 weeks, the action of the preparations is assessed visually in comparison to untreated controls (herbicidal action in percent (%): 100% activity=the plants have died, 0% activity=like control plants). […] The tables below illustrate, in an exemplary manner, the post-emergence herbicidal action of the compounds according to the invention, the herbicidal activity being stated in percent. In the experiments that follow, herbicidal action of numerous inventive compounds and the known compounds that are structurally closest from D1 (WO 2012/028579 A1) and D2 (WO 2018/202535 A1) were compared under the above-specified conditions by the pre-emergence and post-emergence method. The example numbers given in the tables relate to the compounds disclosed in the respective documents. In addition to the compounds disclosed in D1 and D2, the following compounds V-1 to V-14 that are encompassed by D1 or D2 but are not compounds specified therein were used in the comparative experiments: • V-1: 2-(methylsulfanyl)-3-(methylsulfinyl)-N-(1-methyl-1H-tetrazol-5-yl)-4-(trifluoromethyl)benzamide • V-2: 2-(methylsulfanyl)-3-(methylsulfonyl)-N-(1-methyl-1H-tetrazol-5-yl)-4-(trifluoromethyl)benzamide • V-3: 2,3-bis(ethylsulfanyl)-N-(1-methyl-1H-tetrazol-5-yl)-4-(trifluoromethyl)benzamide • V-4: 2-chloro-3-(ethylsulfanyl)-N-(1-methyl-1H-tetrazol-5-yl)-4-(trifluoromethyl)benzamide • V-5: 2-chloro-4-iodo-3-(methylsulfanyl)-N-(1-methyl-1H-tetrazol-5-yl)benzamide • V-6: 2-chloro-4-iodo-3-(methylsulfinyl)-N-(1-methyl-1H-tetrazol-5-yl)benzamide • V-7: 2-chloro-4-iodo-3-(methylsulfonyl)-N-(1-methyl-1H-tetrazol-5-yl)benzamide • V-8: 2-bromo-3-(methylsulfanyl)-N-(1-methyl-1H-tetrazol-5-yl)-4-(trifluoromethyl)benzamide • V-9: 2-bromo-3-(methylsulfinyl)-N-(1-methyl-1H-tetrazol-5-yl)-4-(trifluoromethyl)benzamide • V-10: 2-bromo-3-(methylsulfonyl)-N-(1-methyl-1H-tetrazol-5-yl)-4-(trifluoromethyl)benzamide • V-11: 2-bromo-3-(ethylsulfanyl)-N-(1-methyl-1H-tetrazol-5-yl)-4-(trifluoromethyl)benzamide • V-12: 2-bromo-3-(ethylsulfinyl)-N-(1-methyl-1H-tetrazol-5-yl)-4-(trifluoromethyl)benzamide • V-13: 2-bromo-3-(ethylsulfonyl)-N-(1-methyl-1-1H-tetrazol-5-yl)-4-(trifluoromethyl)benzamide • V-14: 2-cyclopropyl-3-(ethylsulfanyl)-N-(1-methyl-1H-tetrazol-5-yl)-4-(trifluoromethyl)benzamide Herbicidal Pre-Emergence Action: […]

Cyperus esculentus [1] = assay: Pre-emergence herbicidal action, CYPES; design: key: % activity: 100 = plants have died, 0 = like control plants; conditions: comparative experiment
Procedure, shortened: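 Seeds sown in sandy loam in pots and covered with soil; compounds formulated as WP or EC were sprayed onto the soil surface as aqueous suspension/emulsion at 600 to 800 l/ha water with 0.2% wetting agent. Greenhouse growth; visual damage scored after 3 weeks versus untreated controls (100% = plants died, 0% = like control).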

Cyperus esculentus [2] = assay: Post-emergence herbicidal action, CYPES; design: key: % herbicidal action vs untreated; 100 = plants died, 0 = like control; conditions: for Herbicidal action against CYPES: comparative experiment, 20 g of a.i./ha
Experimental: as §1

Hordeum murinum = assay: Post-emergence herbicidal action, HORMU; design: key: % herbicidal action: 100 = plants died, 0 = like control
Experimental: as §1

[3] = post-emergence, 20 g of a.i./ha

SMILES	herbicidal action LOLMU (Lolium multiflorum; post-emergence, dosage 80 g/ha) [%]	herbicidal action CYPES (Cyperus esculentus [2]; post-emergence, dosage 80 g/ha) [%]	other results
Cn1nnnc1NC(=O)c1ccc(C(F)F)c(CS(C)(=O)=O)c1Cl [Example 1-322]	90		
CC[S+]([O-])Cc1c(C(F)(F)F)ccc(C(=O)Nc2nnnn2C)c1Br (racemic) [Example 1-384]	90	90	Herbicidal action against CYPES (Cyperus esculentus [1]; 80 g of a.i./ha): 100
CSCc1c(Cl)ccc(C(=O)Nc2nnnn2C)c1Cl [Example 1-559]	100	90	
CCS(=O)(=O)Cc1c(C(F)F)ccc(C(=O)Nc2nnnn2C)c1Cl [Example 1-325]			herbicidal action CYPES (Cyperus esculentus [2]; Dosage 80 g/ha): 80; herbicidal action LOLMU (Lolium multiflorum; Dosage 80 g/ha): 90
CCn1nnnc1NC(=O)c1ccc(C(F)(F)F)c(CSC)c1Cl [Example 2-296]	90	80	
CCSCc1c(C(F)(F)F)ccc(C(=O)Nc2nnnn2CC)c1C [Example 2-86]	90	80	
CCn1nnnc1NC(=O)c1ccc(C(F)(F)F)c(CS(=O)(=O)CC)c1Br [Example 2-385]		90	
CCSCc1c(C(F)F)ccc(C(=O)Nc2nnnn2CC)c1Cl [Example 2-323]	80	80	
CCn1nnnc1NC(=O)c1ccc(C(F)(F)F)c(C[S+](C)[O-])c1Cl (centres unmarked) [Example 2-297]	90		
CCCn1nnnc1NC(=O)c1ccc(C(F)F)c(CS(=O)(=O)CC)c1Cl [Example 3-325]			herbicidal action CYPES (Cyperus esculentus [2]; Dosage 80 g/ha): 90; herbicidal action HORMU (Hordeum murinum; Dosage 80 g/ha): 90
CCS(=O)(=O)c1c(C(F)(F)F)ccc(C(=O)Nc2nnnn2C)c1Br [Example V-13, 2-bromo-3-(ethylsulfonyl)-N-(1-methyl-1-1H-tetrazol-5-yl)-4-(trifluoromethyl)benzamide, reference compound]			Herbicidal action against CYPES (Cyperus esculentus [2]; post-emergence): 0; Herbicidal action against LOLMU (Lolium multiflorum; [3]): 0
CCS(=O)(=O)Cc1c(C(F)(F)F)ccc(C(=O)Nc2nnnn2C)c1Br [Example 1-385]	80	80	Herbicidal action against CYPES (Cyperus esculentus [2]; post-emergence): 60; Herbicidal action against LOLMU (Lolium multiflorum; [3]): 50
Cc1ccc(C(=O)Nc2nnnn2C)c(Cl)c1C[S+](C)[O-] (racemic) [Example 1-288]			herbicidal action CYPES (Cyperus esculentus [2]; Dosage 80 g/ha): 90
CCSCc1c(C(F)(F)F)ccc(C(=O)Nc2nnnn2C)c1Br [Example 1-383]	90		Herbicidal action against CYPES (Cyperus esculentus [1]; 80 g of a.i./ha): 100
CCSCc1c(C(F)(F)F)ccc(C(=O)Nc2nnnn2C)c1Cl [Example 1-299]	90	80	Herbicidal action against CYPES (Cyperus esculentus [1]; 20 g of a.i./ha): 90; Herbicidal action against LOLMU (Lolium multiflorum; post-emergence, 5 g of a.i./ha): 70
CCCn1nnnc1NC(=O)c1ccc(C(F)(F)F)c(CSCC2CC2)c1Cl [Example 3-314]		80	herbicidal action HORMU (Hordeum murinum; post-emergence, dosage 80 g/ha): 90%
CSCc1c(C(F)(F)F)ccc(C(=O)Nc2nnnn2C)c1C [Example 1-83]	80	90	
